In patent US11648248B1 (King Abdulaziz University, priority 2022, dated 2023):
Converted amounts (≈) assume the structure as drawn. Like-named read-outs stand apart in the source and are kept apart here.

Legend:
Type in all cases: cell-based
[1] = test system: Methicillin-sensitive Staphylococcus aureus ATCC-6538 (MSSA ATCC-6538); experiment: MIC of active MY compounds; details: read-out: MIC MSSA ATCC-6538
From the text: (§1) Based upon the initial results obtained, the active compounds were further screened against additional clinical isolates of methicillin-sensitive S. aureus (MSSA), methicillin-resistant S. aureus (MRSA), vancomycin-resistant S. aureus (VRSA), Staphylococcus epidermidis, vancomycin-resistant Enterococcus faecium (VRE), vancomycin-resistant Enterococcus faecalis (VRE) and Streptococcus pneumoniae, as presented in Table 2. Additionally, we examined whether the compounds were bacteriostatic (inhibit bacteria from growing) or bactericidal (kill bacteria) by determining the minimum bactericidal concentration (MBC). The MBC was determined by plating 5 μL from each well where no growth was present (in the MIC plates) onto tryptic soya agar plates and incubating plates at 37° C. for 24 hours. The MBC was categorized as the lowest concentration that generated a 99.9% reduction in bacterial colony-forming units (Table 3).
(§2) The minimum inhibitory concentrations (MICs) of the tested compounds and control drugs; linezolid, vancomycin, gentamicin (antibiotics) and fluconazole and 5-fluorocytosine (5-FC) (antifungal drugs) were determined using the broth microdilution method, according to guidelines outlined by the Clinical and Laboratory Standards Institute (CLSI)^1, 2, 3 against clinically-relevant bacterial (methicillin-resistant Staphylococcus aureus (MRSA), Escherichia coli and Clostridium difficile strains) and fungal (Candida albicans) strain. S. aureus and E. coli were grown aerobically overnight on tryptone soy agar plates at 37° C. C. difficile was grown anaerobically on brain heart infusion supplemented agar at 37° C. for 48 hours. C. albicans was grown aerobically overnight on yeast peptone dextrose (YPD) agar plate at 35° C. Afterwards, a bacterial solution equivalent to 0.5 McFarland standard was prepared and diluted in cation-adjusted Mueller-Hinton broth (CAMHB) (for S. aureus and E. coli) to achieve a bacterial concentration of about 5×10^5 CFU/mL. C. difficile was diluted in brain heart infusion supplemented broth, supplemented with yeast extract, hemin and vitamin K to achieve a bacterial concentration of about 5×10^5 CFU/mL. C. albicans was diluted in Roswell Park Memorial Institute (RPMI 1640) medium with glutamine and without bicarbonate (GIBCO by Life Technologies, Green Island, N.Y., USA) which was buffered to pH 7.0 with 0.165 M of [3-(N-morpholino) propanesulfonic acid] (MOPS) (dot scientific inc., Burton, Mich., USA) to achieve a fungal concentration of about 1.5×10^3 CFU/mL. Compounds and control drugs were added in the first row of the 96-well plates and serially diluted with the corresponding media containing bacteria/fungi. Plates were then, incubated aerobically at 37° C. for 18-20 hours (for S. aureus and E. coli). C. difficile was incubated anaerobically at 37° C. for 48 hours. C. albicans was incubated aerobically at 37° C. for 24 hours.

[2] = test system: Staphylococcus epidermidis (NRS-101); experiment: MIC of active MY compounds; details: NRS101, read-out: MIC S. epidermidis NRS 101
From the text: as §1, §2

[3] = test system: Methicillin-resistant Staphylococcus aureus (MRSA NRS-119); experiment: MIC of active MY compounds; details: read-out: MIC MRSA NRS119
From the text: as §1, §2

[4] = test system: Cephalosporin-resistant Streptococcus pneumoniae ATCC-15916; experiment: MIC of active MY compounds; details: ATCC15916, read-out: MIC S. pneumoniae ATCC-15916
From the text: as §1, §2

[5] = test system: Vancomycin-resistant Enterococcus faecium ATCC-700221 (VRE ATCC-700221); experiment: MIC of active MY compounds; details: read-out: MIC VRE ATCC-700221
From the text: as §1, §2

[6] = test system: Vancomycin-resistant Staphylococcus aureus (VRSA10); experiment: MIC of active MY compounds; details: read-out: MIC VRSA10
From the text: as §1, §2

[7] = test system: Methicillin-resistant Staphylococcus aureus (MRSA NRS-123, USA400); experiment: MIC of active MY compounds; details: read-out: MIC MRSA NRS123 (USA400)
From the text: as §1, §2

[8] = test system: Methicillin-sensitive Staphylococcus aureus ATCC-6538 (MSSA ATCC-6538); experiment: MBC by plating from MIC wells; details: read-out: MBC MSSA ATCC-6538
From the text: as §1

[9] = test system: Methicillin-sensitive Staphylococcus aureus (MSSA NRS-107); experiment: MBC by plating from MIC wells; details: read-out: MBC MSSA NRS-107
From the text: as §1

[10] = test system: Vancomycin-resistant Staphylococcus aureus (VRSA12); experiment: MBC by plating from MIC wells; details: read-out: MBC VRSA12
From the text: as §1

[11] = test system: Vancomycin-resistant Enterococcus fecalis ATCC-51299 (VRE ATCC-51299); experiment: MBC by plating from MIC wells; details: read-out: MBC VRE ATCC-51299
From the text: as §1

[12] = test system: Cephalosporin-resistant Streptococcus pneumoniae ATCC-700677; experiment: MBC by plating from MIC wells
From the text: as §1

[13] = test system: Staphylococcus epidermidis (NRS-101); experiment: MBC by plating from MIC wells
From the text: as §1

[14] = test system: Methicillin-resistant Staphylococcus aureus (MRSA NRS-119); experiment: MBC by plating from MIC wells; details: read-out: MBC MRSA NRS119
From the text: as §1

[15] = test system: Cephalosporin-resistant Streptococcus pneumoniae ATCC-15916; experiment: MBC by plating from MIC wells
From the text: as §1

[16] = test system: Vancomycin-resistant Enterococcus faecium ATCC-700221 (VRE ATCC-700221); experiment: MBC by plating from MIC wells; details: read-out: MBC VRE ATCC-700221
From the text: as §1

[17] = test system: Listeria monocytogenes ATCC-19111; experiment: MBC by plating from MIC wells
From the text: as §1

[18] = test system: Methicillin-resistant Staphylococcus aureus (MRSA NRS-123, USA400); experiment: MBC by plating from MIC wells; details: read-out: MBC MRSA NRS123 (USA400)
From the text: as §1

[19] = test system: Listeria monocytogenes ATCC-19111; experiment: MIC of active MY compounds; details: ATCC19111, read-out: MIC L. monocytogenes ATCC-19111
[20] = ATCC700677, 99.9% reduction in CFU, read-out: MBC S. pneumoniae ATCC 700677
[21] = NRS101, 99.9% reduction in CFU, read-out: MBC S. epidermidis NRS 101
[22] = ATCC15916, 99.9% reduction in CFU, read-out: MBC S. pneumoniae ATCC-15916
[23] = ATCC19111, 99.9% reduction in CFU, read-out: MBC L. monocytogenes ATCC-19111

| SMILES | MIC [1] | MIC [2] | MIC [3] | MIC [4] | MIC [5] | MIC [6] | MIC [7] | MBC ([8]; 99.9% reduction in CFU) | MBC ([9]; 99.9% reduction in CFU) | MBC ([10]; 99.9% reduction in CFU) | MBC ([11]; 99.9% reduction in CFU) | MBC [12, 20] | MBC [13, 21] | MBC ([14]; 99.9% reduction in CFU) | MBC [15, 22] | MBC ([16]; 99.9% reduction in CFU) | MBC [17, 23] | MBC ([18]; 99.9% reduction in CFU) | MIC [19] | also measured |
| --- | --- | --- | --- | --- | --- | --- | --- | --- | --- | --- | --- | --- | --- | --- | --- | --- | --- | --- | --- | --- |
| O=C(Nc1ccc(Oc2ccc(=O)[nH]n2)cc1)Nc1ccc(Cl)c(C(F)(F)F)c1 [MY31, 1-(4-chloro-3-(trifluoromethyl)phenyl)-3-(4-((6-oxo-1,6-dihydropyridazin-3-yl)oxy)phenyl)urea] | 0.5 µg/mL | 0.5 µg/mL | 0.5 µg/mL | 0.5 µg/mL | 1 µg/mL | 0.5 µg/mL | 0.5 µg/mL | > 64 µg/mL | 2 µg/mL (≈ 4.71 µM) | > 64 µg/mL | > 64 µg/mL | 2 µg/mL (≈ 4.71 µM) | 1 µg/mL (≈ 2.35 µM) | 2 µg/mL (≈ 4.71 µM) | 4 µg/mL (≈ 9.42 µM) | 4 µg/mL (≈ 9.42 µM) | > 64 µg/mL | > 64 µg/mL | 0.5 µg/mL | – |
| O=C(Nc1ccc(-c2ccc(=O)[nH]n2)cc1)Nc1ccc(Cl)c(Cl)c1 [MY21, 1-(3,4-dichlorophenyl)-3-(4-(6-oxo-1,6-dihydropyridazin-3-yl)phenyl)urea] | 1 µg/mL | 1 µg/mL | 1 µg/mL | 2 µg/mL | 2 µg/mL | 1 µg/mL | 1 µg/mL | 4 µg/mL (≈ 10.7 µM) | 4 µg/mL (≈ 10.7 µM) | 8 µg/mL (≈ 21.3 µM) | 16 µg/mL (≈ 42.6 µM) | 4 µg/mL (≈ 10.7 µM) | 4 µg/mL (≈ 10.7 µM) | 1 µg/mL (≈ 2.67 µM) | 4 µg/mL (≈ 10.7 µM) | 4 µg/mL (≈ 10.7 µM) | 0.5 µg/mL (≈ 1.33 µM) | 8 µg/mL (≈ 21.3 µM) | 0.5 µg/mL | – |
| O=C(Nc1ccc(Oc2ccc(=O)[nH]n2)cc1)Nc1ccc(Cl)c(Cl)c1 [MY24, 1-(3,4-dichlorophenyl)-3-(4-((6-oxo-1,6-dihydropyridazin-3-yl)oxy)phenyl)urea] | 1 µg/mL | 1 µg/mL | 1 µg/mL | 2 µg/mL | 4 µg/mL | 1 µg/mL | 1 µg/mL | > 64 µg/mL | 16 µg/mL (≈ 40.9 µM) | > 64 µg/mL | > 64 µg/mL | > 64 µg/mL | 8 µg/mL (≈ 20.4 µM) | 32 µg/mL (≈ 81.8 µM) | 64 µg/mL (≈ 164 µM) | 16 µg/mL (≈ 40.9 µM) | 64 µg/mL (≈ 164 µM) | > 64 µg/mL | 1 µg/mL | – |
| CN[C@H](CC(C)C)C(=O)N[C@H]1C(=O)N[C@@H](CC(N)=O)C(=O)N[C@H]2C(=O)N[C@H]3C(=O)N[C@H](C(=O)N[C@H](C(=O)O)c4cc(O)cc(O)c4-c4cc3ccc4O)[C@H](O)c3ccc(c(Cl)c3)Oc3cc2cc(c3O[C@@H]2O[C@H](CO)[C@@H](O)[C@H](O)[C@H]2O[C@H]2C[C@](C)(N)[C@H](O)[C@H](C)O2)Oc2ccc(cc2Cl)[C@H]1O [Vancomycin, reference compound] | 1 µg/mL | 2 µg/mL | 1 µg/mL | 1 µg/mL | > 64 µg/mL | 64 µg/mL | 1 µg/mL | – | – | – | – | – | – | – | – | – | – | – | 1 µg/mL | MBC [8]: 2 µg/mL (≈ 1.38 µM); MBC [9]: 2 µg/mL (≈ 1.38 µM); MBC [10]: > 64 µg/mL; MBC [11]: 64 µg/mL (≈ 44.2 µM); MBC ([12]; ATCC700677, read-out: MBC S. pneumoniae ATCC 700677): 2 µg/mL (≈ 1.38 µM); MBC ([13]; NRS101, read-out: MBC S. epidermidis NRS 101): 2 µg/mL (≈ 1.38 µM); MBC [14]: 1 µg/mL (≈ 0.69 µM); MBC ([15]; ATCC15916, read-out: MBC S. pneumoniae ATCC-15916): 1 µg/mL (≈ 0.69 µM); MBC [16]: > 64 µg/mL; MBC ([17]; ATCC19111, read-out: MBC L. monocytogenes ATCC-19111): 2 µg/mL (≈ 1.38 µM); MBC [18]: 2 µg/mL (≈ 1.38 µM) |
